Assay results published in patent US4774251A, “Method of inhibiting aromatase” (Eli Lilly and Company, priority 1984, dated 1988).
Like-named read-outs stand apart in the source and are kept apart here.

Experiments:
aromatase = molecular target: T1, aromatase (Rattus norvegicus, UniProt P22443); assay: Aromatase inhibition in the rat ovarian microsome assay; format: biochemical
T1 construct: ovarian microsomes are obtained from rats treated with pregnant mares serum gonadotropin; from tissue; host or cells: ovarian microsomes from rats treated with pregnant mares serum gonadotropin
T1 sequence (P22443 1-508): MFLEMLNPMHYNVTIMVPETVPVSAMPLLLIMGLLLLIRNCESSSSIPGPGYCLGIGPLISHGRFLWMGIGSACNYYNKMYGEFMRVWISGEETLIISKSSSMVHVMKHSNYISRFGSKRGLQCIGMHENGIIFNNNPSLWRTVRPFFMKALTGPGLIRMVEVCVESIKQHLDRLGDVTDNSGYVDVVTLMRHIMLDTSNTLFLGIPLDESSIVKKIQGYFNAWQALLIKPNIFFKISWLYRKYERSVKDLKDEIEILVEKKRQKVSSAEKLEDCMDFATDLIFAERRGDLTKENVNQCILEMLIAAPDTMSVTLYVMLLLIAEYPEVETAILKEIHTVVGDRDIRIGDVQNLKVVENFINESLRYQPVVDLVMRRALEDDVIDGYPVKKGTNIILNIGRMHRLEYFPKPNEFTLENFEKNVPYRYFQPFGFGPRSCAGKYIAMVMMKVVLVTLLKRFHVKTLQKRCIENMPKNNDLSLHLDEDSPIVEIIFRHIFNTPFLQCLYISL
Procedure: In this test system, ovarian microsomes are obtained from rats treated with pregnant mares serum gonadotropin. Test compounds are added to reaction vials containing 0.1 μM 4-androstene-3,17-dione, 100,000 dpm 1,2[^3 H]-androstenedione, the microsomes and a NADPH generating system. The concentrations of the inhibitors tested ranged between 0.005 and 10 μM.

[1] = tested on: estrogen synthesis (ovarian estradiol, estrone, estriol); assay: Estrogen synthesis inhibition in rats: ovarian steroid concentrations after [3H]-testosterone; format: in vivo, rat (immature female Wistar); settings: 7 days, ovary; for Mean Steroid Concentration, estriol: testosterone-treated control: Test I 0.41, Test II 0.17; for Mean Steroid Concentration, estrone: testosterone-treated control: Test I 0.88, Test II 0.41; for Mean Steroid Concentration, estradiol: testosterone-treated control: Test I 2.29, Test II 0.78
Procedure: The ovarian steroids were extracted with 1.5 ml of 9:1 (v/v) toluene/ethanol to which had been added 25 to 100 mcg each of unlabelled estradiol, estriol, and estrone, and approximately 1000 dpm of [^14 C]-estradiol. The samples were vortexed, centrifuged at 500×g for 10 minutes, and the organic phase was transferred to a conical vial. Two additional extractions were performed on the residue in the same way. The pooled organic extract were evaporated for subsequent thin-layer chromatography.
The organic residue from each above extraction was redissolved in 9:1 (v/v) dichloromethane/methanol. The solution of each sample was applied to separate silica gel thin layer chromatography plates which contained a fluorescent indicator. The plates were developed in the first dimension with 160:38:1.5:0.5 (v/v/v/v) dichloromethane/ethyl acetate/methanol/acetic acid to within 3 cm of the top of the plate. After air-drying, the plate was developed in the second dimension with 180:19:1 (v/v/v) dichloromethane/methanol/ammonium hydroxide.
The spots were scraped from the plate using a glass wool plugged Pasteur pipet attached to a vacuum line. The steroids were eluted directly into scintillation vials by the addition of 0.2 ml of dichloromethane followed by two washes each of 2.0 ml of methanol. The organic solvent was evaporated and 10.0 ml of scintillation fluid (Beckman Ready Solv-NA) was added to the vials. Samples were analyzed by liquid scintillation spectrometry. Corrections were made based on the recoveries of the [^14 C]-steroid. Steroid concentrations are expressed as femtomoles per milligram protein.

[2] = tested on: uterus (weight stimulated by estrogens produced by aromatization); assay: Estrogen synthesis inhibition in rats: uterine weight after testosterone propionate; format: in vivo, rat (immature female Wistar); settings: 7 days, testosterone-treated control: Test I 180.3, Test II 210.4, corn oil control: 66.7, 101.4
Procedure: Immature female Wistar rats (45-55 grams) were divided into control and test groups of 4-8 animals each. Test compounds were administered for seven days as a component of the diet. Control animals received diet without the test compound. Beginning on the fourth day of the test, all animals treated with the test compound and one half of the control animals were given a subcutaneous injection of 1.0 mg of testosterone propionate in corn oil. The remaining control animals received only an equivalent volume of corn oil. On the seventh day of the test, rats treated with testosterone propionate were injected subcutaneously with 100 μCi of [^3 H]-testosterone in 50 μl of 3:1 (v/v) saline-ethanol.
After two hours, the animals were killed by decapitation. Uteri were isolated, trimmed of extraneous connective tissue, and weighted. […] In the control animals treated with testosterone propionate, estrogens produced by aromatization stimulated the uterus resulting in an increase in weight.

[3] = rat ovarian microsomes, substrate 4-androstene-3,17-dione 0.1 μM, [3H]-H2O release
[4] = 30 ppm in feed (approx. 3 mg/kg/day)
[5] = 300 ppm in feed (approx. 30 mg/kg/day)

CC(c1cccnc1)N(C)c1ccc(Cl)cc1 (stereo not drawn) [N--(4-chlorophenyl)-N,α-dimethyl-3-pyridinemethanamine]
EC50 (aromatase; [3]): 2000 nM

CCCCN(Cc1cccnc1)c1ccc(C)cc1C [N--butyl-N--(2,4-dimethylphenyl)-3-pyridinemethanamine]
EC50 (aromatase; [3]): 630 nM

CCCCCCN(Cc1cccnc1)c1ccc(Cl)cc1Cl [N--(2,4-dichlorophenyl)-N--hexyl-3-pyridinemethanamine]
EC50 (aromatase): 1200 nM

CN(c1ccc(Cl)cc1)C(c1ccccc1)c1cccnc1 (stereo not drawn) [N--(4-chlorophenyl)-N--methyl-α-phenyl-3-pyridinemethanamine]
EC50 (aromatase; [3]): 2500 nM

Fc1ccc(C(Nc2ccccc2Cl)c2cccnc2)cc1 (stereo not drawn) [N--(2-chlorophenyl)-α-(4-fluorophenyl)-3-pyridinemethanamine]
Mean Steroid Concentration, estriol [1, 4]: 0.51 femtomoles per milligram of protein | Mean Steroid Concentration, estrone [1, 4]: 0.47 femtomoles per milligram of protein | Mean Steroid Concentration, estradiol [1, 4]: 2.67 femtomoles per milligram of protein | Mean Steroid Concentration, estriol [1, 5]: 0.37 femtomoles per milligram of protein | Mean Steroid Concentration, estrone [1, 5]: 0.31 femtomoles per milligram of protein | Mean Steroid Concentration, estradiol [1, 5]: 1.64 femtomoles per milligram of protein | Mean Uterine Weight [2, 4]: 154.3 mg | Mean Uterine Weight [2, 5]: 157.4 mg | EC50 (aromatase; [3]): 80 nM

CCCCN(c1ccc(F)cc1)C(C)c1cccnc1 (stereo not drawn) [N--butyl-N--(4-fluorophenyl)-α-methyl-3-pyridinemethanamine]
EC50 (aromatase; [3]): 370 nM

Fc1ccc(N(Cc2ccccc2)Cc2cccnc2)c(F)c1 [N--(2,4-difluorophenyl)-N--benzyl-3-pyridinemethanamine]
Mean Steroid Concentration, estriol [1, 4]: 0.44 femtomoles per milligram of protein | Mean Steroid Concentration, estrone [1, 4]: 0.00 femtomoles per milligram of protein | Mean Steroid Concentration, estradiol [1, 4]: 0.84 femtomoles per milligram of protein | Mean Steroid Concentration, estriol [1, 5]: 0.32 femtomoles per milligram of protein | Mean Steroid Concentration, estrone [1, 5]: 0.00 femtomoles per milligram of protein | Mean Steroid Concentration, estradiol [1, 5]: 0.44 femtomoles per milligram of protein | Mean Uterine Weight [2, 4]: 196.3 mg | Mean Uterine Weight [2, 5]: 171.4 mg | EC50 (aromatase; [3]): < 50 nM

CC(c1cccnc1)N(Cc1ccccc1)c1ccc(Cl)cc1 (stereo not drawn) [N--(4-chlorophenyl)-α-methyl-N--benzyl-3-pyridinemethanamine]
EC50 (aromatase; [3]): 1200 nM

CC=CCN(Cc1cccnc1)c1ccc(Cl)cc1Cl [N--(2-butenyl)-N--(2,4-dichlorophenyl)-3-pyridinemethanamine]
EC50 (aromatase): 359 nM

C=CCN(Cc1cccnc1)c1ccc(Cl)cc1Cl [N--(2,4-dichlorophenyl)-N--(2-propenyl)-3-pyridinemethanamine]
EC50 (aromatase; [3]): 750 nM

CCCCN(Cc1ccc(Cl)cc1)c1cnccn1 [N--butyl-N--[(4-chlorophenyl)methyl]pyrazinamine]
EC50 (aromatase; [3]): 740 nM

CCCCN(c1ccc(Cl)cc1)C(c1ccccc1)c1cccnc1 (stereo not drawn) [N--butyl-N--(4-chlorophenyl)-α-phenyl-3-pyridinemethanamine]
EC50 (aromatase; [3]): 290 nM

Clc1ccc(N(Cc2ccccc2)Cc2cccnc2)c(Cl)c1 [N--(2,4-dichlorophenyl)-N--benzyl-3-pyridinemethanamine]
EC50 (aromatase; [3]): 310 nM

C#CCN(Cc1cccnc1)c1ccc(Cl)cc1Cl [N--(2,4-dichlorophenyl)-N--(2-propynyl)-3-pyridinemethanamine]
EC50 (aromatase): 165 nM
